For one experiment, the system named is αvβ3 and αvβ5 integrin. As to the kind of experiment: comparison of the αvβ3 and αvβ5 integrin antagonist peptidomimetic with an αvβ3 integrin peptide in nude mice, same chelator and radionuclide. Type of experiment: in vivo. As to conditions: versus αvβ3 integrin peptide. From the text: Embodiments of the present invention also utilize the therapeutic compounds of the invention in conjunction with a diagnostic. Compounds containing αvβ3/αvβ5 anti-integrin antagonist peptidomimetic, displaying a selective affinity for the HER2+ protein, vitronectin, fibronectin, tenascin, reelin, kindlin, talin or combination thereof for the diagnosis or prognosis of disorders using PET, SPECT and MRI or combinations by administering an effective amount of activity thereof to a subject, particularly for the diagnosis of diseases related to metastasis and angiogenesis such as breast cancer, lung cancer, ovarian cancer, gastric cancer, esophageal cancer, blood borne cancers, musculoskeletal tumors, melanoma, head and neck cancer, human glioma, cervical cancer, vascular restenosis, osteoporosis, rheumatoid arthritis. […] The compounds referred to may be radiotracers for nuclear medicine, such as the Gallium-68 or Fluorine-18, […], Copper-64, or Technetium-99m, covalently bound to a spacer, chelator, directly to the peptidomimetic, to a nanoparticle or to more than one amino acid unit of the peptidomimetic. Other radiotracers are those reported in the publication Radionuclide Peptide Cancer Therapy, edited by M. Chinol and G. Paganelli, Taylor and Francis CRC Press, 2006. […]

Another experiment has as its system HER2+ breast cancer. In words: human PET study versus [18F] Fludeoxyglucose PET scan in an HER2+ breast cancer patient. Type of experiment: in vivo.

These results are taken from patent publication US20200085979A1, “PRECISION MEDICINE THERANOSTICS AND DIAGNOSTICS A COMBINATION THEREOF” (priority 2018, published 2020).

For “4-[2-(3,4,5,6-tetrahydropyrimidine-2-ylamino)ethyloxy]benzoyl-2-[N-(3-aminoneopenta-1-carbamyl)]-aminoethylsulfonyl-amino-β-alanine [integrin antagonist peptidomimetic]”, in the experiment with αvβ3 and αvβ5 integrin, the “affinity for the targeted organs relative to the comparator αvβ3 integrin peptide” value is recorded as “three to seven times better”. The “tumors distant from the primary detected” value with HER2+ breast cancer was determined as 25 tumors.
